In the NIST ThermoML archive (doi:10.1021/acs.jced.7b00060):
Where “and” joins values, the source holds several entries; their conditions need not be identical. Equal values may be shown once.

Key:
[1] = refractive index (Na D-line) (dimensionless); conditions: 101.33 kPa, Liquid, Standard Abbe refractometry
[2] = 101.33 kPa, Liquid; for electrical conductivity: Alternating current cell with electrodes; for viscosity: Falling or rolling sphere viscometry; for mass density: Vibrating tube method

CCCC[N+]1(C)CCCC1.N#CN=C=[N-] [1-butyl-1-methylpyrrolidinium dicyanamide]
Conditions	electrical conductivity, [2]	mass density, [2]	refractive index, [1]	viscosity, [2]
238.15 K	0.0337 S/m	–	–	–
248.15 K	0.081 S/m and 0.102 S/m	–	–	–
258.15 K	0.166 S/m and 0.2 S/m	–	–	–
268.15 K	0.299 S/m and 0.352 S/m	–	–	–
278.15 K	0.49 S/m and 0.566 S/m	1029 kg/m3 and 1024.78 kg/m3	–	95.5 mPa·s and 80.15 mPa·s
288.15 K	0.746 S/m and 0.844 S/m	1023.24 kg/m3 and 1019.06 kg/m3	1.4862	61.23 mPa·s and 51.72 mPa·s
293.15 K	–	–	1.4853	–
298.15 K	1.07 S/m and 1.19 S/m	1017.56 kg/m3 and 1013.4 kg/m3	1.4847	41.78 mPa·s and 35.85 mPa·s
303.15 K	–	–	1.4842	–
308.15 K	1.46 S/m and 1.61 S/m	1011.95 kg/m3 and 1007.81 kg/m3	1.4836	29.99 mPa·s and 25.93 mPa·s
313.15 K	–	–	1.4832	–
318.15 K	1.92 S/m and 2.08 S/m	1006.4 kg/m3 and 1002.27 kg/m3	1.4826	21.44 mPa·s and 19.43 mPa·s
323.15 K	–	–	1.4818	–
328.15 K	2.44 S/m and 2.63 S/m	1000.91 kg/m3 and 996.796 kg/m3	1.481	16.47 mPa·s and 15 mPa·s
333.15 K	–	–	1.48	–
338.15 K	3.02 S/m and 3.23 S/m	995.474 kg/m3 and 991.368 kg/m3	1.479	13.08 mPa·s and 11.84 mPa·s
343.15 K	–	–	1.4779	–
348.15 K	3.88 S/m	985.987 kg/m3	–	10.57 mPa·s and 9.634 mPa·s
358.15 K	4.58 S/m	980.656 kg/m3	–	8.801 mPa·s and 8.017 mPa·s
368.15 K	5.32 S/m	–	–	7.467 mPa·s and 6.774 mPa·s
378.15 K	6.11 S/m	–	–	6.444 mPa·s and 5.761 mPa·s
388.15 K	6.93 S/m	–	–	5.605 mPa·s and 5.001 mPa·s
398.15 K	7.78 S/m	–	–	4.956 mPa·s and 4.386 mPa·s
408.15 K	8.67 S/m	–	–	3.905 mPa·s
418.15 K	9.57 S/m	–	–	–
428.15 K	10.5 S/m	–	–	–
438.15 K	11.4 S/m	–	–	–
448.15 K	12.3 S/m	–	–	–

CCCC[n+]1ccccc1.O=S(=O)([N-]S(=O)(=O)C(F)(F)F)C(F)(F)F [1-butylpyridinium bis[(trifluoromethyl)sulfonyl]imide]
Conditions	electrical conductivity, [2] [S/m]	mass density, [2] [kg/m3]	refractive index, [1]	viscosity, [2] [mPa·s]
278.15 K	0.119	1467.88	–	182.1
283.15 K	–	–	1.4474	–
288.15 K	0.206	1458.26	1.4459	100.9
293.15 K	–	–	1.4444	–
298.15 K	0.326	1448.74	1.4429	61.39
303.15 K	–	–	1.4414	–
308.15 K	0.483	1439.32	1.4399	40.14
313.15 K	–	–	1.4384	–
318.15 K	0.677	1430.02	1.4369	27.9
323.15 K	–	–	1.4354	–
328.15 K	0.909	1420.8	1.4339	20.36
333.15 K	–	–	1.4324	–
338.15 K	1.17	1411.66	1.4309	15.42
343.15 K	–	–	1.4294	–
348.15 K	1.47	1402.6	–	12.04
358.15 K	1.8	1393.63	–	9.663
368.15 K	2.16	–	–	7.904
378.15 K	2.54	–	–	–
388.15 K	2.94	–	–	–
398.15 K	3.37	–	–	–
418.15 K	4.27	–	–	–
438.15 K	5.24	–	–	–

CC[S+](C)CC.O=S(=O)([N-]S(=O)(=O)C(F)(F)F)C(F)(F)F [diethylmethylsulfonium bis[(trifluoromethyl)sulfonyl]imide]
Conditions	electrical conductivity, [2] [S/m]	mass density, [2] [kg/m3]	refractive index, [1]	viscosity, [2] [mPa·s]
258.15 K	0.0975	–	–	–
268.15 K	0.182	–	–	–
278.15 K	0.305	1520.53	–	98.6
283.15 K	–	–	1.4276	–
288.15 K	0.473	1510.56	1.4262	61.05
293.15 K	–	–	1.4247	–
298.15 K	0.688	1500.71	1.4233	40.71
303.15 K	–	–	1.4219	–
308.15 K	0.95	1490.96	1.4204	28.55
313.15 K	–	–	1.419	–
318.15 K	1.26	1481.3	1.4175	20.95
323.15 K	–	–	1.4161	–
328.15 K	1.61	1471.73	1.4146	15.73
333.15 K	–	–	1.4132	–
338.15 K	2	1462.25	1.4118	12.34
343.15 K	–	–	1.4103	–
348.15 K	2.43	–	–	9.945
358.15 K	2.88	–	–	8.183
368.15 K	3.37	–	–	6.826
378.15 K	3.89	–	–	5.793
388.15 K	4.43	–	–	4.981
398.15 K	4.99	–	–	4.331
418.15 K	6.16	–	–	–
438.15 K	7.38	–	–	–
458.15 K	8.63	–	–	–

CCCCCCCC[N+](C)(CCCCCCCC)CCCCCCCC.O=C([O-])C(F)(F)F [methyltrioctylammonium trifluoroacetate]
[2]
Conditions	electrical conductivity [S/m]	mass density [kg/m3]	viscosity [mPa·s]
288.15 K	–	–	3629
298.15 K	0.00155	962.478	1551
303.15 K	–	959.262	–
308.15 K	0.00329	956.054	735.2
313.15 K	–	952.805	–
318.15 K	0.0063	949.626	380.8
323.15 K	–	946.478	–
328.15 K	0.0112	943.335	212.1
333.15 K	–	940.189	–
338.15 K	0.0185	937.046	126.7
343.15 K	–	933.904	–
348.15 K	0.0293	930.772	79.97
353.15 K	–	927.648	–
358.15 K	0.0444	924.529	53.33
363.15 K	–	921.418	–
368.15 K	0.0647	–	36.92
378.15 K	0.0924	–	26.69
388.15 K	0.125	–	19.8
398.15 K	–	–	15.03

CC[S+](CC)CC.O=S(=O)([N-]S(=O)(=O)C(F)(F)F)C(F)(F)F [triethylsulfonium bis((trifluoromethyl)sulfonyl)imide]
Conditions	electrical conductivity [S/m]	mass density [kg/m3]	refractive index	viscosity [mPa·s]
[1], 283.15 K	–	–	1.4308	–
[1], 288.15 K	–	–	1.4293	–
[1], 293.15 K	–	–	1.4279	–
[1], 298.15 K	–	–	1.4264	–
[1], 303.15 K	–	–	1.4249	–
[1], 308.15 K	–	–	1.4234	–
[1], 313.15 K	–	–	1.4219	–
[1], 318.15 K	–	–	1.4204	–
[1], 323.15 K	–	–	1.419	–
[1], 328.15 K	–	–	1.4175	–
[1], 333.15 K	–	–	1.4161	–
[1], 338.15 K	–	–	1.4148	–
[1], 343.15 K	–	–	1.4134	–
[2], 258.15 K	0.0992	–	–	–
[2], 268.15 K	0.186	–	–	–
[2], 278.15 K	0.314	1479.69	–	80.5
[2], 288.15 K	0.487	1469.86	–	49.88
[2], 298.15 K	0.708	1460.14	–	33.36
[2], 308.15 K	0.975	1450.51	–	23.5
[2], 318.15 K	1.29	1440.97	–	17.34
[2], 328.15 K	1.64	1431.52	–	13.26
[2], 338.15 K	2.03	1422.15	–	10.44
[2], 348.15 K	2.46	–	–	8.445
[2], 358.15 K	2.91	–	–	6.963
[2], 368.15 K	3.4	–	–	5.849
[2], 378.15 K	3.92	–	–	4.99
[2], 388.15 K	4.43	–	–	4.312
[2], 398.15 K	5	–	–	3.768
[2], 408.15 K	5.58	–	–	–
[2], 418.15 K	6.16	–	–	–
[2], 428.15 K	6.76	–	–	–
[2], 438.15 K	7.37	–	–	–
[2], 448.15 K	7.98	–	–	–
[2], 458.15 K	8.59	–	–	–
[2], 468.15 K	9.17	–	–	–
